Target: T1, FLK-1 VEGF receptor (Mus musculus, UniProt P35918)
T1 construct: expressed in transfected cells; host or cells: HeLa (HLR-ELK-1, Stratagene) stably co-transfected with the FLK-1 expression vector; clone #5
Assay: VEGF responsive luciferase assay in VEGF-receptor stable transfected HLR-ELK-1 cell line (clone #5)
Format: cell-based
Conditions: FIG. 9
From the text: The assay of the present invention utilizes a stable VEGF responsive cell line which comprises HeLa cells which have been stably transfected with a reporter vector having an expressible reporter element and a DNA binding element disposed adjacent thereto. Preferably, the reporter vector includes a gene encoding a detectable gene product which is disposed downstream of a basic promoter element, preferably a TATA box, which is joined to the binding element which is preferably a GAL4 binding element. […]
In general, utilizing known signal transduction relationships and/or pathways, a sample to be assayed for VEGF bioactivity is placed in a container containing the stable cell line as described above. […] Activated FLK-1, which is a known VEGF receptor, then activates MAP kinase (Kroll and Waltenberger, J. Biol. Chem., 1997:272:32521-32527; Doanes et. al., Biochem. Biophys. Res. Comm., 1999;255:545-548. The activated MAP kinase phosphorylates the fusion trans-activation protein (GAL4 DNA binding domain [dbd] fused with ELK-1). The phosphorylated fusion protein binds to the GAL4 DNA binding site of the reported vector activating luciferase expression. Luciferase expression can be detected utilizing techniques well-known in the art. The presence or expression of luciferase indicates VEGF activity in the sample. […]

T1 sequence (P35918 20-1345): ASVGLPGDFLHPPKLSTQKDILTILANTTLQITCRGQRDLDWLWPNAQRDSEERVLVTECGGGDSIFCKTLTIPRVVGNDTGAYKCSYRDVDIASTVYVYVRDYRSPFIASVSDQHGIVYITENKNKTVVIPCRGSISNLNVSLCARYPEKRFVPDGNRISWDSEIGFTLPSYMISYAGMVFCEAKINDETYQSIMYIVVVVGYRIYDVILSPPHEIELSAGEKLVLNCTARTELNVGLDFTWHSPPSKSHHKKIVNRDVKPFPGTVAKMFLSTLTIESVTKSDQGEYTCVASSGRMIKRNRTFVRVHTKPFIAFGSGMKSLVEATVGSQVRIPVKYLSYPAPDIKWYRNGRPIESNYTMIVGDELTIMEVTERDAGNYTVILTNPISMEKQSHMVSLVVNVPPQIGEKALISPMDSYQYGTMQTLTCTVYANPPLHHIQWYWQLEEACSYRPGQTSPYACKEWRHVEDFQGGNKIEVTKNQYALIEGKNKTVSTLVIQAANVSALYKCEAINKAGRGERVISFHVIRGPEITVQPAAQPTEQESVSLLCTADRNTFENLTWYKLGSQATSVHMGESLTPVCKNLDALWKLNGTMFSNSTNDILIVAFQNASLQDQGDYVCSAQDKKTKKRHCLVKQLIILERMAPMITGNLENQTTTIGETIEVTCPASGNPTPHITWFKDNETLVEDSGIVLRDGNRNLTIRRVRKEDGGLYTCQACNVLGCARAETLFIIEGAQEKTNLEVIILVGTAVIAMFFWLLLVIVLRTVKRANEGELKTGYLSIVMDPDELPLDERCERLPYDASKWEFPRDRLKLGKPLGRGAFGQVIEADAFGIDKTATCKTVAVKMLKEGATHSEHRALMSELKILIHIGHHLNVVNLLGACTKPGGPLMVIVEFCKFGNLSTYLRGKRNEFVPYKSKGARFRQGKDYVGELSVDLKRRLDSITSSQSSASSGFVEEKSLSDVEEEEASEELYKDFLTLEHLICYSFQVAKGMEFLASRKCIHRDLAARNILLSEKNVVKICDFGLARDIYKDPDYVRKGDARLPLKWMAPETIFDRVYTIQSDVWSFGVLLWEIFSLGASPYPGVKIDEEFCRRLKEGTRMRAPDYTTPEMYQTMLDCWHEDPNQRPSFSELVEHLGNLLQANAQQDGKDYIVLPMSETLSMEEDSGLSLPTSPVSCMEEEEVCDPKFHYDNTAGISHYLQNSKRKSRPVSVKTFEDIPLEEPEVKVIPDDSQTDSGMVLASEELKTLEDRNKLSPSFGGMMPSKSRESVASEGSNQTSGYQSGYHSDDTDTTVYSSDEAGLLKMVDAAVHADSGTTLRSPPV

COc1cc2c(Nc3ccc(Br)cc3F)ncnc2cc1OCCn1ccnn1 [ZD4190]
effect on VEGF stimulation of luciferase expression: affected luciferase expression in a dose-response manner

Source: US20020110830A1, “VEGF responsive cell-based assay for determining VEGF bioactivity” (priority 2001, published 2002)
